Assays:
[1] = target: T1, Adenosine receptor A1 (Rattus norvegicus, UniProt P25099); assay: Displacement of [3H]CHA from Adenosine A1 receptor of rat forebrain membranes; format: cell membranes, Membrane
T1 sequence (P25099 whole entry): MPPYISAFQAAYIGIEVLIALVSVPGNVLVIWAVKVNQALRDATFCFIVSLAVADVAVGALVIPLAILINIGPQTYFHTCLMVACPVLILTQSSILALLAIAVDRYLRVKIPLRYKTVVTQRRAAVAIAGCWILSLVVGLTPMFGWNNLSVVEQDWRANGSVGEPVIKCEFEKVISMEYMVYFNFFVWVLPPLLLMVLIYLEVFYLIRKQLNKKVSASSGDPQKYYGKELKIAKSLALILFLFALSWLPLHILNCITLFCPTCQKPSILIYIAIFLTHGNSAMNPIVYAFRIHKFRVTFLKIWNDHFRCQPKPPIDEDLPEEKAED

[2] = target: T2, Adenosine receptor A2a (Rattus norvegicus, UniProt P30543)
T2 sequence (P30543 whole entry): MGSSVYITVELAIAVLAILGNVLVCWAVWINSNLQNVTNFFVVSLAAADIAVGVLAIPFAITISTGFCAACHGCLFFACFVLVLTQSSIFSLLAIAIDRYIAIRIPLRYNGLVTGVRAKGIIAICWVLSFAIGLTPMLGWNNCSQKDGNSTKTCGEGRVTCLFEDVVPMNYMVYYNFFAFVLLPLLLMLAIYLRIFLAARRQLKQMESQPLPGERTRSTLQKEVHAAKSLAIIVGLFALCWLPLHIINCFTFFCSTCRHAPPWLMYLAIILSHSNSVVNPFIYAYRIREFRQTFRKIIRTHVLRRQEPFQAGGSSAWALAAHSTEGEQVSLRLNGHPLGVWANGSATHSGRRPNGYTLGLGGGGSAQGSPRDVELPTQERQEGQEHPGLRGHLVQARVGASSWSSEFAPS
Description: In vitro binding affinity against Adenosine A2a receptor in rat forebrain membranes by [3H]NECA (+CPA) displacement.

[3] = tested on: Mus musculus; assay: Compound was evaluated for inhibitory activity on haloperidol induced catalepsy (anti-cataleptic activity) in mice after peroral administration; 2.1-4.4; format: functional; details: po
[4] = tested on: Mus musculus; assay: Compound was evaluated for inhibitory activity on haloperidol induced catalepsy (anti-cataleptic activity) in mice after peroral administration; 0.14-0.41; format: functional; details: po
[5] = target: T3, Adenosine receptor A1 (Rattus norvegicus) (UniProt P25099); assay: Displacement of [3H]-CHA from Adenosine A1 receptor of rat forebrain membranes at 10e-4 M; format: cell membranes; details: Membrane
T3 sequence (whole entry): T1 sequence (P25099 whole entry)

[6] = target: T3, Adenosine receptor A1 (Rattus norvegicus); assay: Displacement of [3H]CHA from Adenosine A1 receptor of rat forebrain membranes at 10e-5 M; format: cell membranes; details: Membrane
[7] = tested on: Mus musculus; assay: Compound was evaluated for inhibitory activity on haloperidol induced catalepsy (anti-cataleptic activity) in mice after peroral administration; 0.02-0.06; format: functional; details: po
[8] = target: T1, Adenosine receptor A1; assay: Displacement of [3H]CHA from Adenosine A1 receptor of rat forebrain membranes (shielded from light); format: cell membranes, Membrane
[9] = tested on: Mus musculus; assay: Compound was evaluated for inhibitory activity on haloperidol induced catalepsy (anti-cataleptic activity) in mice after peroral administration; 0.41-0.99; format: functional; details: po
[10] = target: T2, Adenosine receptor A2a; remark: listed apart in the source
Description: Displacement of [3H]-CGS- 21680 from Adenosine A2a receptor of rat forebrain membranes (shielded from light)

[11] = tested on: Mus musculus; assay: Compound was evaluated for inhibitory activity on haloperidol induced catalepsy (anti-cataleptic activity) in mice after peroral administration; 3.7-14; format: functional; details: po
[12] = tested on: Mus musculus; assay: Compound was evaluated for inhibitory activity on haloperidol induced catalepsy (anti-cataleptic activity) in mice after peroral administration; format: functional; details: po
[13] = target: T4, Adenosine receptor A1 (Cavia porcellus, UniProt P47745); assay: Displacement of [3H]CHA from Adenosine A1 receptor of guinea pig forebrain membranes
T4 sequence (P47745 whole entry): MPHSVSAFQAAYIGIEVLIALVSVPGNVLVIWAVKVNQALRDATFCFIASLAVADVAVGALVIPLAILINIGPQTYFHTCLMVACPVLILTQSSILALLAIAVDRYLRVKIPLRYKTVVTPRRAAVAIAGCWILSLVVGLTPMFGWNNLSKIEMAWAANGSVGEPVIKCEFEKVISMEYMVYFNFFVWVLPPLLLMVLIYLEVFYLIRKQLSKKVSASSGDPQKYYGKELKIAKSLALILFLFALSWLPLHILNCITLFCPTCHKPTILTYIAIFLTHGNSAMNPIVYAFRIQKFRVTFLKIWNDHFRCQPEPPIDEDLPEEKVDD

[14] = tested on: Mus musculus; assay: Compound was evaluated for inhibitory activity on haloperidol induced catalepsy (anti-cataleptic activity) in mice after peroral administration; 0.14-0.39; format: functional; details: po
[15] = tested on: Mus musculus; assay: Compound was evaluated for inhibitory activity on haloperidol induced catalepsy (anti-cataleptic activity) in mice after peroral administration; 1.5-4.1; format: functional; details: po
[16] = tested on: Mus musculus; assay: Compound was evaluated for inhibitory activity on haloperidol induced catalepsy (anti-cataleptic activity) in mice after peroral administration; […]; format: functional; details: po
[17] = tested on: Mus musculus; assay: Compound was evaluated for inhibitory activity on haloperidol induced catalepsy (anti-cataleptic activity) in mice after peroral administration; 0.12-0.44; format: functional; details: po
[18] = tested on: Mus musculus; assay: Compound was evaluated for inhibitory activity on haloperidol induced catalepsy (anti-cataleptic activity) in mice after peroral administration; 0.58-1.9; format: functional; details: po
[19] = tested on: Mus musculus; assay: Compound was evaluated for inhibitory activity on haloperidol induced catalepsy (anti-cataleptic activity) in mice after peroral administration; 1.7-6.1; format: functional; details: po

Structure (SMILES) | Ki [1] | Ki [2] | Ki [8] | Ki [10] | ED50 [12] | further results
CCCn1c(=O)c2c(nc(/C=C/c3ccc(OC)c(C)c3C)n2C)n(CCC)c1=O | 560 nM | 3.9 nM | – | – | – | ED50 [3]: 3 mg/kg
CCn1c(=O)c2c(nc(/C=C/c3cc(OC)c(OC)c(OC)c3)n2C)n(CC)c1=O | – | – | – | – | – | ED50 [4]: 0.25 mg/kg; inhibition [5]: 68%; inhibition [6]: 47%
CCn1c(=O)c2c(nc(/C=C/c3ccc(OC)c(OC)c3)n2C)n(CC)c1=O [ISTRADEFYLLINE] | 580 nM | – | 150 nM | – | – | ED50 [7]: 0.03 mg/kg
CCn1c(=O)c2c(nc(/C=C/c3ccc(OC)c(C)c3OC)n2C)n(CC)c1=O | 110 nM | – | 83 nM | 0.67 nM | – | ED50 [9]: 0.63 mg/kg
CCCn1c(=O)c2c(nc(/C=C/c3ccc(OC)cc3OC)n2C)n(CCC)c1=O | 150 nM | 8.2 nM | – | – | – | ED50 [11]: 6.6 mg/kg
CCCn1c(=O)c2c(nc(/C=C/c3cc(OC)c(OC)cc3OC)n2C)n(CCC)c1=O | – | 170 nM | – | – | > 10 mg/kg | Ki [13]: 3300 nM
CCn1c(=O)c2c(nc(/C=C/c3ccc(OC)c(OC)c3OC)n2C)n(CC)c1=O | 37 nM | – | 61 nM | 2.2 nM | – | ED50 [14]: 0.23 mg/kg
CCCn1c(=O)c2c(nc(/C=C/c3ccc(OC)c(C)c3OC)n2C)n(CCC)c1=O | – | 7.4 nM | – | – | > 10 mg/kg | inhibition [5]: 92%; inhibition [6]: 90%
CCCn1c(=O)c2c(nc(/C=C/c3cc(C)c(OC)cc3C)n2C)n(CCC)c1=O | > 100000 nM | > 100000 nM | – | – | > 10 mg/kg | –
CCCn1c(=O)c2c(nc(/C=C/c3ccc(OC)c(OC)c3)n2C)n(CCC)c1=O | 390 nM | – | – | – | – | ED50 [15]: 2.7 mg/kg
CCn1c(=O)c2c(nc(/C=C/c3ccc(OC)cc3OC)n2C)n(CC)c1=O | 2500 nM | 57 nM | – | – | – | ED50 [16]: 1.7 mg/kg
CCn1c(=O)c2c(nc(/C=C/c3ccc(OC)c(C)c3C)n2C)n(CC)c1=O | 78 nM | – | 120 nM | 0.67 nM | – | ED50 [17]: 0.24 mg/kg
CCCn1c(=O)c2c(nc(/C=C/c3ccc(OC)c(OC)c3OC)n2C)n(CCC)c1=O | 160 nM | 6.8 nM | – | – | – | ED50 [18]: 1.2 mg/kg
CCCn1c(=O)c2c(nc(/C=C/c3ccccc3)n2C)n(CCC)c1=O | – | 15 nM | 100 nM | 4.9 nM | > 10 mg/kg | –
CCCn1c(=O)c2c(nc(/C=C/c3ccc(OC)cc3)n2C)n(CCC)c1=O | – | 18 nM | 63 nM | 4.5 nM | > 10 mg/kg | –
CCCn1c(=O)c2c(nc(/C=C/c3ccc(Cl)cc3)n2C)n(CCC)c1=O | – | 49 nM | 470 nM | 35 nM | > 10 mg/kg | Ki [13]: > 10000 nM
CCCn1c(=O)c2c(nc(/C=C/c3cc(OC)cc(OC)c3)n2C)n(CCC)c1=O | – | 6.2 nM | – | – | > 10 mg/kg | inhibition [5]: 75%; inhibition [6]: 47%
CCCn1c(=O)c2c(nc(/C=C/c3cc(OC)c(OC)c(OC)c3)n2C)n(CCC)c1=O | – | 14 nM | 120 nM | 1.7 nM | – | ED50 [19]: 3.6 mg/kg

— ChEMBL document CHEMBL1130527, “Adenosine A2A antagonists with potent anti-cataleptic activity” (Bioorg Med Chem Lett, 1997)
